Data as given in paper PMC8216263 (Pharmaceutical Biology, 2021).

Columns and labels:
[1] = Single- and multiple-dose plasma pharmacokinetics of GA and PCA after oral RLQ in healthy subjects; assay type: in vivo, human; conditions: LC-MS/MS after oral RLQ
Procedure: The study protocol was approved by the Ethics Committee of the Second Affiliated Hospital of Tianjin University of Traditional Chinese Medicine. […] Subjects were offered standard meals at 4 and 10 h after dosing. Water was not permitted during the hour before and the hour after dosing, except for 240 mL administered with dosing; additional water intake was allowed at all other times.
In the single-dose study, 8 g of RLQ was administered orally on day 1. A 7-d washout time was designed between single-dose and multiple-dose pharmacokinetic studies. In the multiple-dose study, subjects received multiple doses of RLQ (8 g, t.i.d.) for seven consecutive days from day 8 to day 14 and a single dose of RLQ (8 g) on the morning of day 15. […] Additional pre-dose samples were collected in the morning on days 12, 13 and 14. […] All samples were stored at −80 °C until analysis.
All analytes were extracted from plasma and urine samples by simple protein precipitation extraction method using acetonitrile. Briefly, 5 µL of internal standard solution and 300 μL of acetonitrile were added to the spiked blank matrix (100 μL) and vortexed for 3 min and then centrifuged at 13,000 × g for 10 min. The supernatant was transferred and dried using a flow of nitrogen. The residue was re-dissolved in 100 µL of 10% methanol solution containing 0.1% formic acid. An aliquot of 5 µL solution was injected into the LC-MS/MS system for analysis.
The chromatographic separation was performed on an Acquity Ultra Performance LC instrument (Waters, Milford, MA) with a gradient programme in an ACQUITY UPLC BEH C18 column (2.1 mm × 100 mm, 1.7 μm). […] The injection volume was 2 µL. The mass spectrometry analysis was performed on an AB Sciex Triple Quad 5500 MS (Framingham, MA) equipped with an ESI source.
The peak plasma concentration (Cmax) and time to reach the peak plasma concentration (Tmax) were calculated from the actual plasma concentration data. The area under the plasma concentration-time curve from zero to the last measurable concentration (AUC0–t) was calculated via the linear trapezoidal rule. AUC0–∞ was calculated using the following formula: AUC0–∞ = AUC0–t + Ct/ke, where Ct is the last plasma concentration measured. […] The accumulation index was calculated as AUCss/AUC0–t.

BCRP = target: T1, BCRP (Homo sapiens, UniProt Q9UNQ0); design: method as in Ebert et al. 2006; conditions: Caco-2 cells pre-treated with quercetin, ref Ebert et al. 2006; cited from earlier work
T1 sequence (Q9UNQ0 1-655): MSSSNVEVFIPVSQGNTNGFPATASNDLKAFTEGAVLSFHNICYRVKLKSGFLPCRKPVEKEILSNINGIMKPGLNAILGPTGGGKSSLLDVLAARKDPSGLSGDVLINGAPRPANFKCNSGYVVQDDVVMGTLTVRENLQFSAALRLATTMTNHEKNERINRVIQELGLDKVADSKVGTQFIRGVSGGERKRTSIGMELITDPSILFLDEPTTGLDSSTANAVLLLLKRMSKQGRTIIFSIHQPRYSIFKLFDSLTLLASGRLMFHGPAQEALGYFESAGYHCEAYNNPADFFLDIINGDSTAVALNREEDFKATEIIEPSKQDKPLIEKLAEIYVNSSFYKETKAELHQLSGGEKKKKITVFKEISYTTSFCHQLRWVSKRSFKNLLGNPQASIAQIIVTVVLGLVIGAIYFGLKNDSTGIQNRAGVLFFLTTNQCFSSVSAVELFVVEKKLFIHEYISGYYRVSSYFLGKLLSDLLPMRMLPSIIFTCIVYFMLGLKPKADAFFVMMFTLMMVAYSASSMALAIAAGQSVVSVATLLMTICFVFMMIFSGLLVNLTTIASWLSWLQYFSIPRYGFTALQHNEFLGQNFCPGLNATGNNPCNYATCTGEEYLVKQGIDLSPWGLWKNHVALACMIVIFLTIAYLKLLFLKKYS

Row | response in human plasma and urine samples [1] | Compound | apical transport of BCRP-mediated benzo(a)pyrene-3-sulphate (BCRP)
1 | little or no response | O=c1c(O)c(-c2ccc(O)cc2)oc2cc(O)cc(O)c12 [kaempferol] | 
2 | little or no response | O=c1c(O)c(-c2ccc(O)c(O)c2)oc2cc(O)cc(O)c12 [quercetin] | increase
